In ChEMBL document CHEMBL1201862, “PubChem BioAssay data set” (2004):
Calls of active or inactive are those of the source.

How the values were obtained:
Cytochrome P450 2C9 = Cytochrome P450 2C9 (Homo sapiens, UniProt P11712); details: Potency
Cytochrome P450 2C19 = Cytochrome P450 2C19 (Homo sapiens, UniProt P33261); test: qHTS Assay for Inhibitors and Substrates of Cytochrome P450 2C19. [Related pubchem assays: 410 ]; assay type: ADME; details: read-out: Potency
Cytochrome P450 2D6 = Cytochrome P450 2D6 (Homo sapiens, UniProt P10635); test: qHTS Assay for Inhibitors and Substrates of Cytochrome P450 2D6. [Related pubchem assays: 410 ]; assay type: ADME; details: read-out: Potency
Aspartyl aminopeptidase = Aspartyl aminopeptidase (Plasmodium falciparum 3D7, UniProt Q8I2J3)
Procathepsin L = Procathepsin L (Homo sapiens, UniProt P07711)
[1] = target: T1, Induced myeloid leukemia cell differentiation protein Mcl-1 (Homo sapiens, UniProt Q07820); test: blockers of MCL1 binding to BIM peptide – biochemical, fluorescence polarization, BIM-BH3 peptide, 1536-well, dose response (AID 2217)
Bcl-2-like protein 1 = Bcl-2-like protein 1 (Homo sapiens, UniProt Q07817); test: blockers of BCLXL peptide binding – biochemical, fluorescence polarization, 1536-well, selectivity assay for MCL1 inhibitor project, dose response (AID 2218)
[2] = target: Melanin-concentrating hormone receptor 1 (Homo sapiens, UniProt Q99705); test: Late-stage fluorescence-based counterscreen for antagonists of the G-protein coupled receptor 7 (GPR7): cell-based dose response assay to identify antagonists of the melanin-concentrating hormone receptor 1 (MCHR1). [Related pubchem assays (depositor defined):AID1861, AID1880, AID1952, AID2148, AID2251, AID2257, AID485339]; assay type: functional;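 further: stimulated with 30 nM MCH peptide agonist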
[3] = target: Neuropeptides B/W receptor type 1 (Homo sapiens, UniProt P48145); test: human NPBW1 receptor blockade, IC50 – cell-based, fluorescence, dose response, late-stage follow-up (AID 463251); assay type: functional
[4] = target: Voltage-gated N-type calcium channel alpha-1B subunit/Amyloid beta A4 precursor protein-binding family A member 1 (Homo sapiens, UniProt Q00975+Q02410); test: disruptors of Mint-PDZ/N-type channel peptide interaction – biochemical, HTRF, set 2, SAR follow-up (AID 434980); assay type: functional
[5] = target: T2, Eukaryotic translation initiation factor 4H (Homo sapiens, UniProt Q15056); test: inhibitors of translation initiation factor eIF4H – SAR follow-up (AID 435011); assay type: functional
[6] = target: T3, Polyadenylate-binding protein 1 (Homo sapiens, UniProt P11940); test: blockers of PABP interaction with poly(A) – biochemical, fluorescence polarization, […] (AID 2014)
[7] = target: T2, Eukaryotic translation initiation factor 4H; test: eIF4H binding inhibition – biochemical, uHTS, fluorescence polarization, translation initiation inhibitor project, primary screen (AID 2012)
[8] = target: T3, Polyadenylate-binding protein 1; test: PABP inhibition in translation initiation, SAR follow-up (AID 435018); assay type: functional
Leucine aminopeptidase = target: T4, Leucine aminopeptidase (Plasmodium falciparum 3D7, UniProt Q8IL11); test: P. falciparum M17LAP inhibitors, primary screen, biochemical, fluorogenic H-Leu-NHMec substrate, 1536-well (AID 1619); assay type: functional
T4 sequence (Q8IL11 whole entry): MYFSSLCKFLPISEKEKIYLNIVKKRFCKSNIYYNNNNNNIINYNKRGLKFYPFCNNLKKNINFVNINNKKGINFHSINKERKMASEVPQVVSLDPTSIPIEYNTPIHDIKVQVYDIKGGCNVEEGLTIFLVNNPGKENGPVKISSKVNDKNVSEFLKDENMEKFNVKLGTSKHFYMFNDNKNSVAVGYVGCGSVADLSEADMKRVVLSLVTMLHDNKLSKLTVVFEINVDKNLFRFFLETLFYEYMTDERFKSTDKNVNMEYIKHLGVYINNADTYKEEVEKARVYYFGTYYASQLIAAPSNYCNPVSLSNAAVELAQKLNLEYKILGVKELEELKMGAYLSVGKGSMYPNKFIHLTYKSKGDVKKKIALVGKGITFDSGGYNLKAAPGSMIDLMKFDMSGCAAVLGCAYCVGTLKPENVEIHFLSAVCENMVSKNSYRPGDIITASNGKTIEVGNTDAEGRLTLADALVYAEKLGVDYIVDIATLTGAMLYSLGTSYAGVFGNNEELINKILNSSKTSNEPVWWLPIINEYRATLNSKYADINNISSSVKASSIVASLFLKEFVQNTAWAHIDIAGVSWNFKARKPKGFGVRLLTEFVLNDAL

[9] = target: T1, Induced myeloid leukemia cell differentiation protein Mcl-1; assay type: functional
[10] = target: T5, Scavenger receptor class B member 1 (Mus musculus, UniProt Q61009); test: mouse SR-BI DiI-HDL uptake blockers – ldlA[mSR-BI] cells, fluorescence, cherry pick, dose response (AID 493194); assay type: functional, cell-based;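 further: cellular uptake of fluorescent DiI-labeled HDL measured as cell fluorescence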
T5 sequence (Q61009 whole entry): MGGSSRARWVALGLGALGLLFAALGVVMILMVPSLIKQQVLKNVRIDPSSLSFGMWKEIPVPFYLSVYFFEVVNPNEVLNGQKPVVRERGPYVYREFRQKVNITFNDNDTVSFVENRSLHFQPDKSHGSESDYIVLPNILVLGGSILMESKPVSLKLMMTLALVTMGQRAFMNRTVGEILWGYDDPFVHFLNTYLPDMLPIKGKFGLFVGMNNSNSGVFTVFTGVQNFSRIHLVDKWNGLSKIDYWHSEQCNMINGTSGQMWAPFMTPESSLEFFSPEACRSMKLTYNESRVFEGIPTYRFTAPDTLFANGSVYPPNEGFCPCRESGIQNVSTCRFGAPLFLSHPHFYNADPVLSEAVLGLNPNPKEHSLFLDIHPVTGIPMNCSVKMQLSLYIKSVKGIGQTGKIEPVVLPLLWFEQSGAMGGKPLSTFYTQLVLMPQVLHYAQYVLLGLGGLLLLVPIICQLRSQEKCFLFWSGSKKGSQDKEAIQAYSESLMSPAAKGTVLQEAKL

[11] = target: T6, Alkaline phosphatase, tissue-nonspecific isozyme (Homo sapiens, UniProt P05186); test: activation of tissue-nonspecific alkaline phosphatase – biochemical, TNAP isozyme, human IAP uHTS hits, selectivity assay for human IAP activator project, dose response (AID 488886); assay type: functional;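 further: potency of compounds raising TNAP activity as a selectivity check on IAP activators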
T6 sequence (P05186 whole entry): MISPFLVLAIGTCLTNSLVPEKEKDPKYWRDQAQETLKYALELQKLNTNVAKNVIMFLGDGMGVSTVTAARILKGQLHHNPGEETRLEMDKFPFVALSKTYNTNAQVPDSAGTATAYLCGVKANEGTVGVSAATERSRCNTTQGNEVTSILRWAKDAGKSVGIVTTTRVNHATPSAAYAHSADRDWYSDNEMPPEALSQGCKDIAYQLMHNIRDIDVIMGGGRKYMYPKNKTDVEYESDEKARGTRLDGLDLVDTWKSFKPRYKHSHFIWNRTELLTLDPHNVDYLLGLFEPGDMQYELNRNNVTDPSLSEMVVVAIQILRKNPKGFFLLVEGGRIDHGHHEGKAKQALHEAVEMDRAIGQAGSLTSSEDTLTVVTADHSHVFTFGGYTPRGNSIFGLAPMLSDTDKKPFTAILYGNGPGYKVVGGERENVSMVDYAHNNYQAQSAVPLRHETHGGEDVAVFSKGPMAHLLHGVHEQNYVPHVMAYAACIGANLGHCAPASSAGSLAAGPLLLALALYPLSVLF

[12] = target: T7, Intestinal-type alkaline phosphatase (Homo sapiens, UniProt P09923); test: activation of human intestinal alkaline phosphatase – biochemical, luminescent, uHTS hits, set 2, dose response (AID 488817); assay type: functional;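 further: potency of activators that raise enzyme activity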
[13] = target: T7, Intestinal-type alkaline phosphatase; test: human intestinal alkaline phosphatase activators, dose response, biochemical, luminescence, uHTS hits (AID 463120); assay type: functional
[14] = target: T8, Intestinal-type alkaline phosphatase (Mus musculus, UniProt P24822); test: PubChem AID 488874; assay type: functional
[15] = target: T8, Intestinal-type alkaline phosphatase; test: PubChem AID 488875; assay type: functional
[16] = target: Lysosomal acid glucosylceramidase (Homo sapiens, UniProt P04062); test: Dose response cell-based high throughput screening assay to identify enhancers of beta-glucosidase activity. [Related pubchem assays: 784 ]; assay type: functional
Trypanosoma cruzi = test: anti-trypanosomal activity in host cells – cell-based, plate reader, dry powder, set 3, dose response (AID 493197); assay type: functional
[17] = NIH/3T3 cell viability loss – mouse embryonic fibroblasts, dry powder, set 2, cytotoxicity control, dose response (AID 493247); assay type: functional, cell-based; details: Fibroblast

T7 sequence (P09923 whole entry): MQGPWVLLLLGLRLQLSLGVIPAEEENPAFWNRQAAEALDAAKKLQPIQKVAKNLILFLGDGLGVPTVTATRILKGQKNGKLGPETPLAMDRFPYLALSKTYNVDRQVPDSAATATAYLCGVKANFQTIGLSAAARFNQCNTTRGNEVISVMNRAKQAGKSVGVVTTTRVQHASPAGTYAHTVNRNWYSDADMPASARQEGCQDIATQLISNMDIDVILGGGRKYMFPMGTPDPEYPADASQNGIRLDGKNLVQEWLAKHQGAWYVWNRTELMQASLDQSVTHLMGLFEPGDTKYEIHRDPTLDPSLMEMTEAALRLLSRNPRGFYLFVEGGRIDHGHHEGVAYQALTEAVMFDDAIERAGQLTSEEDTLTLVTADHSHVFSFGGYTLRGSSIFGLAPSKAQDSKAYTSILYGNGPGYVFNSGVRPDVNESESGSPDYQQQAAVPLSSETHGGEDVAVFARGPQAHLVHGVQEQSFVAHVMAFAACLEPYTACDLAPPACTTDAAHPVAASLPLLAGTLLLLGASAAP
T3 sequence (P11940 whole entry): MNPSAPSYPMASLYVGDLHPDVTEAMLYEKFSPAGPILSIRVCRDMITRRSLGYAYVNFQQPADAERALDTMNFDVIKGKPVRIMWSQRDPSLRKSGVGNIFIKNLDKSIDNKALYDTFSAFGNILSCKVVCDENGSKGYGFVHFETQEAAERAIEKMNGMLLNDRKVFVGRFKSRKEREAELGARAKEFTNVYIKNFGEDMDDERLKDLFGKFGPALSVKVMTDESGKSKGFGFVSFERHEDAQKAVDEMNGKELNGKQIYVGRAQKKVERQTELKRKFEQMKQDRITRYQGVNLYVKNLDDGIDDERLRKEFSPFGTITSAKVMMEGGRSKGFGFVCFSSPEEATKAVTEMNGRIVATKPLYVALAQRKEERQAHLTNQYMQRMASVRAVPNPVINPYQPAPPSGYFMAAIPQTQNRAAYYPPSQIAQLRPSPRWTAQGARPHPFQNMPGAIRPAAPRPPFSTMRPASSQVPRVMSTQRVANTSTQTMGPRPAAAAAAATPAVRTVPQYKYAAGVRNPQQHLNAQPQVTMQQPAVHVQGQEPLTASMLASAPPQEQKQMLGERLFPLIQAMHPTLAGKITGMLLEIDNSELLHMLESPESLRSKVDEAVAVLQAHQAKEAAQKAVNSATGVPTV
T1 sequence (Q07820 whole entry): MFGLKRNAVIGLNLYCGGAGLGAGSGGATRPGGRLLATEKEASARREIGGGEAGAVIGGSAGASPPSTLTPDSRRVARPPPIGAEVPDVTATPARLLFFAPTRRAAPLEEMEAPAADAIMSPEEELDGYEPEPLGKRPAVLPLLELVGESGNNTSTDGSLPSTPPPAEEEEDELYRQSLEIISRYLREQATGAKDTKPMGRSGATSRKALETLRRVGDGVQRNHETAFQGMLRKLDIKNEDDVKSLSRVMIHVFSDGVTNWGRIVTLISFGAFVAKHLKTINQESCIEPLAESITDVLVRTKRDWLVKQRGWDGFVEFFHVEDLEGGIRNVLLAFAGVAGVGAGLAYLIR
T8 sequence (P24822 whole entry): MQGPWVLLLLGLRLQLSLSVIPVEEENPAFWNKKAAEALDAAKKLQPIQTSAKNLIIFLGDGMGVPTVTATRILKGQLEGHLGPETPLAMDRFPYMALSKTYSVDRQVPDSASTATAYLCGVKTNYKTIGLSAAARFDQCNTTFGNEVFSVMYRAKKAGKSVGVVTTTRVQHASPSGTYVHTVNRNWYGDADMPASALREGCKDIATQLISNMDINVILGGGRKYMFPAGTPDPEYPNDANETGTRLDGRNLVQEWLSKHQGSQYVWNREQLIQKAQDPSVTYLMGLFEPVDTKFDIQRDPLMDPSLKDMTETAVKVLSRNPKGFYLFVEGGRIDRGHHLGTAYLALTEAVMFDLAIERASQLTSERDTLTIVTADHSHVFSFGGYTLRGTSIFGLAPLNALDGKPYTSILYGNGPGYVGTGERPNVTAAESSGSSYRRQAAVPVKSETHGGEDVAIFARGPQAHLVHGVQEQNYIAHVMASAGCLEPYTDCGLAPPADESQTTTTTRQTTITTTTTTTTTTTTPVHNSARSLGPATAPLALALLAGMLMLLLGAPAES
Sequence of Cytochrome P450 2C19 (P33261 whole entry): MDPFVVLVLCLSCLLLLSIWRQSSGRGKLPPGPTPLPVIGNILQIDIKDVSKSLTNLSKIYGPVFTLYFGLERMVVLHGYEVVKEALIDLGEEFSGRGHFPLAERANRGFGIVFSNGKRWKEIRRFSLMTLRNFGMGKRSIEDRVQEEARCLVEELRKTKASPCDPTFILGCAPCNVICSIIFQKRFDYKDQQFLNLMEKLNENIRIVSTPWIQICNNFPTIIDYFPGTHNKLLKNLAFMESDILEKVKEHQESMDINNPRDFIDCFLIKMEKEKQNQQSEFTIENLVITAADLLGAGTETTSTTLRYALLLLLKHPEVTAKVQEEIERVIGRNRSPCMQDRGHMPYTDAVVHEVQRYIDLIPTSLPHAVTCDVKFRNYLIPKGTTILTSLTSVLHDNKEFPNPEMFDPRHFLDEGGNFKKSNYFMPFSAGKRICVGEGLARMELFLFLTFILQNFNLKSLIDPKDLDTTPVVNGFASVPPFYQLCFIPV
Sequence of Procathepsin L (P07711 whole entry): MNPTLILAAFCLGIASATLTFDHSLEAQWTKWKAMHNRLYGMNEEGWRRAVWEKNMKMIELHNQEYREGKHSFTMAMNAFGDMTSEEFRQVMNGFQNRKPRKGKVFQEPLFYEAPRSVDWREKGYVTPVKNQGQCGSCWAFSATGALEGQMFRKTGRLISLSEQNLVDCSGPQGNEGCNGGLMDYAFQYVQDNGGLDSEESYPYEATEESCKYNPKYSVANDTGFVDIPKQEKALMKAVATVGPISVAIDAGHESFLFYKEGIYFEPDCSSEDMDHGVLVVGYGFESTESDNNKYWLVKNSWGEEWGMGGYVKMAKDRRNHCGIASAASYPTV
Sequence of Cytochrome P450 2C9 (P11712 whole entry): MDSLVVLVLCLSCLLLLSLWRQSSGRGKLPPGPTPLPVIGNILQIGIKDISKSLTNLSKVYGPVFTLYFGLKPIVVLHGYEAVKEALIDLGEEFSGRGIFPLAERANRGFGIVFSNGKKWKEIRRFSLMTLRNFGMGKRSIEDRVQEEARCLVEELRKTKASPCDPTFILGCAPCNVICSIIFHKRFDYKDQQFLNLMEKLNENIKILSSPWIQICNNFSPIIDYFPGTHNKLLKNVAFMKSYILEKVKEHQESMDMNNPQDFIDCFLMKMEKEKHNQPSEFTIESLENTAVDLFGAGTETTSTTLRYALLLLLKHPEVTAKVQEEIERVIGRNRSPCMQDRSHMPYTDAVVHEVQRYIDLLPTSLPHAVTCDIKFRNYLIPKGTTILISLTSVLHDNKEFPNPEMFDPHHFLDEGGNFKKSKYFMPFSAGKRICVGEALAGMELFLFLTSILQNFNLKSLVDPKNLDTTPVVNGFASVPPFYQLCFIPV
Sequence of Cytochrome P450 2D6 (P10635 whole entry): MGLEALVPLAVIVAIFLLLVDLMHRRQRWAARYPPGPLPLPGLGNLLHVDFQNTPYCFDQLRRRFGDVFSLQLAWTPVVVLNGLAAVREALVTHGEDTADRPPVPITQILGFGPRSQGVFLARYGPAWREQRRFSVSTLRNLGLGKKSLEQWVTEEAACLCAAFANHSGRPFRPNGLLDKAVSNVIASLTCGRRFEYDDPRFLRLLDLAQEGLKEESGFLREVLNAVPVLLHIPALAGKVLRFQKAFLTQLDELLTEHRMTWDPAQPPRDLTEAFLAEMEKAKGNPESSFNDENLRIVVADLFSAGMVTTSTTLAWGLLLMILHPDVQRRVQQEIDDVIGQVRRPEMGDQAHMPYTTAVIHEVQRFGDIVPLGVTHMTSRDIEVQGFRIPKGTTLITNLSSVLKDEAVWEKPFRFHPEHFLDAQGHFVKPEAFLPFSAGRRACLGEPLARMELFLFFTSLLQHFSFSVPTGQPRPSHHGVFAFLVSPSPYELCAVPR
Sequence of Aspartyl aminopeptidase (Q8I2J3 whole entry): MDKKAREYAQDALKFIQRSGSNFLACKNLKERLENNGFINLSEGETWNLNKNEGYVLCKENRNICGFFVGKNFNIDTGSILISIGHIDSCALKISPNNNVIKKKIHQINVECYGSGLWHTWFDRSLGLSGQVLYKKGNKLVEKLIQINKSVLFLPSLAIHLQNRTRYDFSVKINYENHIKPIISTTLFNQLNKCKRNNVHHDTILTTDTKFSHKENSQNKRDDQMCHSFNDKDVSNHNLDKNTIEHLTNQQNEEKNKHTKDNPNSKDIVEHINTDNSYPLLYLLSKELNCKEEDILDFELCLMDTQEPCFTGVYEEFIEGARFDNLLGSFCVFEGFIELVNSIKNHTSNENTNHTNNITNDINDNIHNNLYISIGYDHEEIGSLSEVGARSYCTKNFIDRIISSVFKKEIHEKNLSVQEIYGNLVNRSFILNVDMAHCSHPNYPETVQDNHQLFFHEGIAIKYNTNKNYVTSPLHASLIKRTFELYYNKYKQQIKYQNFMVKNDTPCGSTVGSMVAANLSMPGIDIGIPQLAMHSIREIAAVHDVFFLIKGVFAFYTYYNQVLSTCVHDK
Sequence of Bcl-2-like protein 1 (Q07817 whole entry): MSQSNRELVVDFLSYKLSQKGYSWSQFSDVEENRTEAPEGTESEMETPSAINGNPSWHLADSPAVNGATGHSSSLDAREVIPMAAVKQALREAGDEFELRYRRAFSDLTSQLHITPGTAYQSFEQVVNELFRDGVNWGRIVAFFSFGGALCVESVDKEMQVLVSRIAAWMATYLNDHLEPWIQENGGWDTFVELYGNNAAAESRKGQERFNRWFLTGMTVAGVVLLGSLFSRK

CCCCCCC#Cc1cc(OC)c(OC)cc1C(N1CC(C)c2ccccc21)N1CC(C)c2ccccc21 (stereo not drawn)
AC50 (Cytochrome P450 2C9): 3.16 µM (inconclusive) | AC50 (Cytochrome P450 2C19): 3.98 µM (inconclusive) | AC50 (Cytochrome P450 2D6): 7.94 µM (inconclusive)

CC(C)n1c(SCC(=O)Nc2nncs2)nnc1-c1ccco1
IC50 (Aspartyl aminopeptidase): 4.68 µM (active) | IC50 (Procathepsin L): > 59.6 µM (not active) | IC50 [1]: 18.1 µM (not active) | IC50 (Bcl-2-like protein 1): > 109 µM (not active)

COc1ccc(Oc2cnn(-c3ccc(C)cc3)c(=O)c2Cl)cc1
IC50 [2]: 12.6 µM (inactive) | IC50 [3]: 7 µM (active)

O=C(c1cc(-c2ccco2)nc2ccccc12)N1CCC(c2ccccc2)CC1
IC50 [4]: > 56.8 µM (inactive)

COc1cccc(CNC(=O)CSc2ccc(-c3ccco3)nn2)c1
IC50 [5]: > 100 µM (inactive) | IC50 [6]: > 100 µM (inactive) | IC50 [7]: 34.9 µM (active) | IC50 [8]: > 100 µM (inactive)

CC1CCc2c(sc(Nc3nc4c(F)cccc4s3)c2C(N)=O)C1 (stereo not drawn)
IC50 (Leucine aminopeptidase): 18 µM (active) | IC50 [9]: 3.83 µM (active) | AC50 [10]: 10.9 µM (active)

O=C(NNC(=S)NC(=O)c1ccccc1)c1cccnc1
EC50 [11]: 16.4 µM (active) | EC50 [12]: 16.4 µM (active) | EC50 [13]: 12.1 µM (active) | IC50 [14]: 74.2 µM (active)

CC(C)Oc1ccc(C(=O)Nc2nnc[nH]2)cc1
EC50 [11]: 22.9 µM (active) | EC50 [12]: 33 µM (active) | EC50 [15]: > 100 µM (inactive) | EC50 [13]: 11.4 µM (active)

O=C(O)c1ccc2c(c1)C(c1ccccc1)OC2=O (stereo not drawn)
EC50 [16]: > 10 µM (not active)

COc1ccc(CCN(C)C(=O)C2CCCN(Cc3ccccc3)C2)cc1OC (stereo not drawn)
AC50 (Trypanosoma cruzi): 1.4 µM (active) | AC50 [17]: 47.4 µM (active)
